Test results reported in the supplement of paper PMC10307832.

Experiments:
Assay in all cases: relative viability (nuclei count vs DMSO), 5 days (fraction); higher = more cells survive
Sulindac + OSI-027 = compound: CC1=C(CC(=O)O)c2cc(F)ccc2/C1=C\c1ccc([S+](C)[O-])cc1 [Sulindac] + COc1cccc2cc(-c3nc([C@H]4CC[C@H](C(=O)O)CC4)n4ncnc(N)c34)[nH]c12 [OSI-027] (partner 0.5 µM)
Procedure, shortened: (§1)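 Dosing by pin tool came one day after lung cancer cell lines were seeded in 1536-well plates, using either one drug or a fixed anchor-drug dose plus five library-drug doses (not always all listed) in √10 steps. After 5 days, nuclei were counted on 4× images. Relative viability is treated-well nuclei count divided by vehicle-well nuclei count, and values are medians of duplicate plates.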

Sulindac + Dasatinib = compound: CC1=C(CC(=O)O)c2cc(F)ccc2/C1=C\c1ccc([S+](C)[O-])cc1 [Sulindac] + Cc1nc(Nc2ncc(C(=O)Nc3c(C)cccc3Cl)s2)cc(N2CCN(CCO)CC2)n1 [Dasatinib] (partner 0.075 µM)
Procedure, shortened: as §1

[1] = compound: CN[C@@H]1C[C@H]2O[C@@](C)([C@@H]1OC)n1c3ccccc3c3c4c(c5c6ccccc6n2c5c31)C(=O)NC4 [Staurosporine] + CC(=O)Nc1cccc(-n2c(=O)n(C3CC3)c(=O)c3c(Nc4ccc(I)cc4F)n(C)c(=O)c(C)c32)c1 [Trametinib] (partner 0.02 µM)
Procedure, shortened: as §1

[2] = compound: CN[C@@H]1C[C@H]2O[C@@](C)([C@@H]1OC)n1c3ccccc3c3c4c(c5c6ccccc6n2c5c31)C(=O)NC4 [Staurosporine] + N=C(N)NC(=N)NCCc1ccccc1 [Phenformin] (partner 250 µM)
Procedure, shortened: as §1

| Cell Line | relative viability (Sulindac + OSI-027; first compound 0.08 µM) | relative viability (Sulindac + OSI-027; first compound 0.253 µM) | relative viability (Sulindac + OSI-027; first compound 2.53 µM) | relative viability (Sulindac + OSI-027; first compound 8 µM) | relative viability (Sulindac + Dasatinib; first compound 0.08 µM) | relative viability (Sulindac + Dasatinib; first compound 0.253 µM) | relative viability (Sulindac + Dasatinib; first compound 2.53 µM) | relative viability (Sulindac + Dasatinib; first compound 8 µM) | relative viability ([1]; first compound 0.005 µM) | relative viability ([1]; first compound 0.01581 µM) | relative viability ([1]; first compound 0.05 µM) | relative viability ([1]; first compound 0.1581 µM) | relative viability ([1]; first compound 0.5 µM) | relative viability ([2]; first compound 0.005 µM) | relative viability ([2]; first compound 0.01581 µM) | relative viability ([2]; first compound 0.05 µM) | relative viability ([2]; first compound 0.1581 µM) | relative viability ([2]; first compound 0.5 µM) | relative viability (Sulindac + OSI-027; first compound 0.8 µM) | relative viability (Sulindac + Dasatinib; first compound 0.8 µM) |
| --- | --- | --- | --- | --- | --- | --- | --- | --- | --- | --- | --- | --- | --- | --- | --- | --- | --- | --- | --- | --- |
| PC-14 | 1.3 | 1.2 | 0.886 | 1.09 | 0.25 | 0.293 | 0.222 | 0.369 | 0.483 | 0.064 | 0.0553 | 0.0467 | 0.0475 | 0.26 | 0.129 | 0.0894 | 0.0651 | 0.0636 | – | – |
| HARA | 0.553 | 0.549 | 0.488 | 0.602 | 0.248 | 0.25 | 0.327 | 0.26 | 0.365 | 0.401 | 0.2 | 0.132 | 0.118 | 0.374 | – | 0.211 | 0.133 | 0.0495 | 0.447 | 0.277 |
| NCI-H23 | 0.678 | – | 0.583 | 0.72 | 0.856 | – | 0.755 | 0.78 | 0.315 | 0.165 | 0.172 | 0.0936 | 0.119 | 0.763 | – | 0.351 | 0.174 | 0.161 | 0.602 | 0.801 |
| LCLC-97TM1 | 0.629 | 0.626 | 0.426 | 0.589 | 0.996 | 0.951 | 0.711 | 0.998 | 0.168 | 0.115 | 0.103 | 0.0977 | 0.0977 | 0.212 | 0.171 | 0.184 | 0.158 | 0.149 | 0.294 | 0.637 |
| LC-2-ad | 0.763 | 0.986 | 0.701 | 0.776 | 0.584 | 0.718 | 0.418 | 0.839 | 0.945 | 0.732 | 0.559 | 0.165 | 0.122 | 0.485 | 0.2 | 0.154 | – | 0.171 | 0.686 | 0.337 |
| NCI-H1666 | 0.857 | 0.882 | 0.826 | 0.915 | 0.945 | 0.875 | 0.871 | 0.995 | 0.785 | 0.573 | 0.635 | 0.513 | 0.456 | 0.495 | 0.567 | 0.518 | 0.262 | 0.201 | 0.753 | 0.716 |
| EKVX | 0.674 | 0.713 | 0.598 | 0.684 | 0.414 | 0.524 | 0.479 | 0.476 | 0.224 | 0.184 | 0.143 | 0.169 | 0.12 | 0.172 | 0.119 | 0.159 | 0.142 | 0.118 | 0.641 | – |
| SW 1573 | 0.722 | 0.676 | 0.699 | 0.578 | 0.392 | 0.691 | 0.574 | 0.497 | 0.137 | 0.0903 | 0.055 | 0.047 | 0.033 | 0.201 | 0.156 | 0.0959 | 0.101 | 0.0586 | – | – |
| HCC-827 | 0.913 | 0.777 | 0.798 | 0.761 | 0.348 | 0.412 | 0.319 | 0.338 | 0.625 | 0.641 | 0.357 | 0.313 | 0.231 | 0.43 | 0.35 | 0.214 | 0.167 | – | 0.573 | 0.251 |
| NCI-H727 | 0.561 | 0.538 | 0.537 | 1 | 0.345 | 0.333 | 0.394 | 0.412 | 0.349 | 0.346 | 0.316 | 0.267 | 0.257 | 0.404 | 0.319 | 0.379 | 0.219 | 0.146 | – | – |
| CAL-12T | 0.534 | 0.847 | 0.61 | 0.696 | 0.317 | 0.391 | 0.371 | 0.341 | 0.19 | 0.145 | 0.0965 | 0.126 | 0.083 | 0.205 | 0.165 | 0.235 | 0.103 | 0.112 | 0.51 | 0.324 |
| NCI-H1648 | 0.25 | 0.242 | 0.268 | 0.265 | – | – | – | – | 0.586 | 0.299 | 0.0693 | 0.25 | 0.265 | – | – | – | – | – | 0.298 | – |
| NCI-H522 | 0.788 | 0.777 | 0.62 | 0.645 | 0.841 | 0.962 | 0.917 | 0.908 | 0.667 | 0.775 | 0.627 | 0.623 | 0.59 | 0.783 | – | 0.594 | 0.41 | 0.405 | 0.666 | 0.891 |
| EPLC-272H | 0.274 | 0.286 | 0.256 | 0.327 | 0.424 | 0.377 | 0.358 | 0.332 | 0.291 | 0.15 | 0.123 | 0.067 | 0.0425 | 0.22 | 0.0782 | 0.0721 | 0.0546 | 0.0603 | – | – |
| A-427 | 0.495 | 0.474 | 0.459 | 0.584 | 0.92 | 0.76 | 0.714 | 0.755 | 0.521 | 0.439 | 0.247 | 0.121 | 0.117 | 0.189 | 0.114 | 0.109 | 0.0973 | 0.123 | 0.443 | 0.547 |
| NCI-H661 | 0.735 | 0.838 | 0.711 | 0.797 | 0.966 | 0.842 | 0.807 | 1.08 | 0.522 | 0.336 | 0.29 | 0.248 | 0.137 | 0.277 | 0.235 | 0.27 | 0.19 | 0.131 | 0.622 | 0.759 |
| NCI-H1993 | 0.513 | 0.554 | 0.542 | 0.581 | 0.569 | 0.516 | 0.581 | 0.575 | 0.45 | 0.453 | 0.51 | 0.36 | 0.278 | 0.507 | 0.408 | 0.463 | 0.455 | 0.421 | 0.495 | 0.543 |
| NCI-H358 | 0.941 | 0.891 | 0.727 | 0.891 | 0.125 | 0.128 | 0.155 | 0.19 | 0.157 | 0.111 | 0.0885 | 0.0815 | 0.0672 | 0.337 | 0.0847 | 0.0848 | 0.0499 | 0.0405 | 0.657 | 0.191 |
| SK-LU-1 | 0.305 | 0.343 | 0.316 | 0.351 | 0.157 | 0.162 | 0.143 | 0.202 | 0.253 | 0.15 | 0.172 | 0.187 | 0.12 | 0.235 | 0.111 | – | 0.0994 | 0.0726 | 0.295 | 0.168 |
| NCI-H1915 | 0.764 | 0.688 | 0.678 | 0.625 | 0.345 | 0.335 | 0.291 | 0.322 | 0.252 | 0.139 | 0.0978 | 0.0599 | 0.0612 | 0.332 | 0.087 | 0.181 | 0.0813 | 0.0841 | – | – |
| NCI-H650 | 0.506 | 0.523 | 0.545 | 0.566 | 0.52 | 0.462 | 0.466 | 0.47 | 1.07 | 0.383 | 0.27 | 0.222 | 0.151 | 0.285 | 0.257 | 0.26 | 0.189 | 0.164 | 0.523 | 0.469 |
| NCI-H441 | 0.627 | 0.597 | 0.679 | 0.759 | 0.592 | 0.643 | 0.647 | 0.83 | 0.373 | 0.186 | 0.168 | 0.133 | 0.0933 | 0.817 | 0.259 | 0.246 | 0.202 | 0.102 | 0.416 | 0.406 |
| COR-L 105 | 0.653 | 0.747 | 0.635 | 0.843 | 0.307 | 0.42 | 0.291 | 0.393 | 0.427 | 0.357 | 0.274 | 0.234 | 0.237 | 0.312 | 0.217 | 0.176 | 0.207 | 0.181 | 0.498 | 0.305 |
| NCI-H2009 | 0.732 | 0.77 | 0.626 | 0.731 | 0.297 | 0.322 | 0.256 | 0.344 | 0.204 | 0.143 | 0.149 | 0.087 | 0.0761 | 0.207 | 0.188 | 0.216 | 0.131 | 0.0831 | 0.582 | 0.305 |
| NCI-H1437 | 1.01 | 1 | 0.811 | 0.96 | 0.405 | 0.462 | 0.399 | 0.444 | 0.342 | 0.244 | 0.26 | 0.21 | 0.124 | 0.247 | – | 0.187 | 0.11 | 0.118 | 0.767 | 0.293 |
| ABC-1 | 0.503 | 0.447 | 0.466 | 0.489 | 0.506 | 0.53 | – | 0.673 | – | – | – | – | – | 0.169 | 0.205 | 0.0951 | 0.0728 | 0.105 | 0.361 | 0.434 |
| NCI-H1563 | 0.754 | 0.784 | 0.703 | 0.784 | 0.414 | 0.451 | 0.418 | 0.497 | – | – | – | – | – | 0.566 | 0.533 | 0.577 | 0.506 | 0.416 | 0.762 | 0.476 |
| A549 | – | – | – | – | – | – | – | – | – | – | – | – | – | 0.127 | 0.025 | 0.0465 | 0.031 | 0.0233 | – | – |
| NCI-H1623 | 0.401 | 0.427 | 0.409 | 0.421 | 0.552 | 0.444 | 0.501 | 0.519 | – | – | – | – | – | 0.574 | 0.578 | 0.631 | 0.59 | 0.306 | 0.415 | 0.525 |
| HCC-44 | 0.463 | 0.592 | 0.519 | 0.734 | – | – | – | – | 1.04 | – | 0.444 | – | 0.322 | 0.104 | 0.0863 | 0.0757 | 0.0829 | 0.0953 | – | – |
